Literature values, collected in patent publication US20180255771A1, “CONTROLLED GAS PHASE RELEASE OF NON AQUEOUS PHASE LIQUID ESSENTIAL OIL COMPOUNDS FOR AROMATHERAPY, FRAGRANCE AND INSECTICIDAL ACTIVITY” (priority 2015, published 2018).

What was measured:
Ixodes ricinus = details: for repellency to Ixodes ricinus compared with DEET: 10 ug dose; for repellency to Ixodes ricinus: 1 ug dose
[1] = USEPA conclusion
[2] = at 20° C.

| SMILES | repellency to Ixodes ricinus compared with DEET (Ixodes ricinus) | repellency to Ixodes ricinus (Ixodes ricinus) | also measured |
| --- | --- | --- | --- |
| Cc1ccc(O)c(O)c1 [4-Methyl-1,2-benzenediol] | as repellent as DEET | – | – |
| CCN(CC)C(=O)c1cccc(C)c1 [DEET, N,N-diethyl-meta-toluamide] | – | not reported to be effective | risks to humans or the environment [1]: will generally not cause unreasonable risks; vapor pressure [2]: 0.0056 mm Hg |
| CCc1ccc(O)c(O)c1 [4-Ethyl-1,2-benzenediol] | as repellent as DEET | statistically significantly more repellent | – |
| C=CCc1cc(OC)c(O)c(OC)c1 [4-Allyl-2,6-dimethoxyphenol] | as repellent as DEET | – | – |
| C=CCc1ccc(O)c(OC)c1 [eugenol] | – | – | repelling ticks (Ixodes ricinus) compared with DEET (Ixodes ricinus; 100 ug dose, DEET at a 100 ug dose): as effective at repelling ticks |
